Read-outs that look alike come from different tables or passages of the source.
Tests used:
Assay type in all cases: biochemical
[1] = biological target: T1, Nape-pld (Mus musculus, UniProt Q8BH82); experiment: fluorogenic PED-A1 hydrolysis assay, activation; conditions: read-out: EC50 μM^b (95% CI)
[2] = biological target: T2, soluble epoxide hydrolase (sEH) (Homo sapiens, UniProt P34913); experiment: sEH activity assay kit
T2 sequence (P34913 1-555): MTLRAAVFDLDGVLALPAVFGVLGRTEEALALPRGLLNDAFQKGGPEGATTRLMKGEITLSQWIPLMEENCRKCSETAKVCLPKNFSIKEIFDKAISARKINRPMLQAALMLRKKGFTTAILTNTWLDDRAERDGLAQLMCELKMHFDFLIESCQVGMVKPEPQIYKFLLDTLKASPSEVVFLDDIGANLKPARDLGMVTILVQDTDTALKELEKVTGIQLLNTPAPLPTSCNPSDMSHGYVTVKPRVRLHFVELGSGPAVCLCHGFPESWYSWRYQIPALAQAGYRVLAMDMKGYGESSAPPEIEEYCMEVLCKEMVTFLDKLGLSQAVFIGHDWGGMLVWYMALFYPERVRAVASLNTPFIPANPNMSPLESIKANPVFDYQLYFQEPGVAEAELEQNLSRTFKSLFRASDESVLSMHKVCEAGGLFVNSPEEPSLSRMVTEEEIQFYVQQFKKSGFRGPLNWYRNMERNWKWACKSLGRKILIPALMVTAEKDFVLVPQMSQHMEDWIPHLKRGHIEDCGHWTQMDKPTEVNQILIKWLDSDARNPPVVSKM

[3] = biological target: NAPE-PLD (Homo sapiens, UniProt Q6IQ20); experiment: recombinant human enzyme, PED-A1 fluorogenic assay, activation
[4] = biological target: T1, Nape-pld; experiment: fluorogenic PED-A1 hydrolysis assay, activation; conditions: read-out: EC50 μM^b (95% CI); remark: listed apart in the source
[5] = biological target: T1, Nape-pld; experiment: fluorogenic PED-A1 hydrolysis assay, activation; conditions: read-out: EC50 μM^b (95% CI); remark: listed apart in the source

T1 sequence (Q8BH82 whole entry): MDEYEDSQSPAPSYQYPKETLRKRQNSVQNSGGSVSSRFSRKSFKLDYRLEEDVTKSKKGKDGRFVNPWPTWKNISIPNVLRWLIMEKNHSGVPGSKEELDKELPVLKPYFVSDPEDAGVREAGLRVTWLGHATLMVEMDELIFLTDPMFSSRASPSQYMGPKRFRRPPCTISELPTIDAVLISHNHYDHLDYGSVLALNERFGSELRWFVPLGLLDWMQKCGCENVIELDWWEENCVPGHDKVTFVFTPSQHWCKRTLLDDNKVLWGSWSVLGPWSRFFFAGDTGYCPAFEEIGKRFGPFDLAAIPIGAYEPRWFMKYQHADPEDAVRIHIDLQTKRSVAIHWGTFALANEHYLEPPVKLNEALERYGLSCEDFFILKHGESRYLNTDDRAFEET
Sequence of NAPE-PLD (Q6IQ20 whole entry): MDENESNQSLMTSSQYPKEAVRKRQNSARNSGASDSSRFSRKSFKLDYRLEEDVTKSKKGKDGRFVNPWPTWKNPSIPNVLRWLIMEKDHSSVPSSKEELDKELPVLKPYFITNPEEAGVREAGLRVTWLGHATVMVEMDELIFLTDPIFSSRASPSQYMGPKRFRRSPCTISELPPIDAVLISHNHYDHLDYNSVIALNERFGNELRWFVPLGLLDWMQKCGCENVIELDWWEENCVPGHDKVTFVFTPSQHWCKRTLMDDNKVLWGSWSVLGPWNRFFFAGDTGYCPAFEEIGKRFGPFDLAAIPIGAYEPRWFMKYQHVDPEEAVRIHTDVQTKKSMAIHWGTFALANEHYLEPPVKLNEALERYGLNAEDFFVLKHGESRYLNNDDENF

EC50 [1] [µM] | IC50 [2] [µM] | EC50 [3] [µM] | EC50 [4] [µM] | EC50 [5] [µM] | Structure (SMILES)
0.32 |  |  |  |  | Cc1ccc2nc(NC(=O)C3CCN(S(=O)(=O)c4ccc(F)cc4)CC3)sc2c1 [compound 3, VU486]
0.74 |  |  |  |  | Cc1ccc2nc(NC(=O)C3CCN(S(=O)(=O)c4ccc(Cl)cc4)CC3)sc2c1 [compound 5, VU539]
 | 1.2 | 0.93 | 0.3 |  | Cc1cc(C)c2sc(NC(=O)C3CCN(S(=O)(=O)c4ccc(F)cc4)CC3)nc2c1 [compound 8, VU534]
 |  | 0.2 |  | 0.3 | Cc1ccc(C)c2sc(NC(=O)C3CCN(S(=O)(=O)c4ccc(F)cc4)CC3)nc12 [compound 9, VU533]

Reference: article PMC9900783 (bioRxiv, 2023)
